Assay results: patent publication US9122153B2, “Cyclic compound, method for producing same, composition, and method for forming resist pattern” (MITSUBISHI GAS CHEMICAL COMPANY, INC., priority 2011, dated 2015)

Assay: Solubility test of compound in safe solvent
Format: physicochemical
Details: 23° C., ultrasonic wave 30 minutes, visually evaluated; for CHN (dissolution amount): cyclohexanone; for PGME (dissolution amount): propylene glycol monomethyl ether
Description: The compound was precisely weighed in a test tube at 23° C.; and the target solvent was added to the compound so that a predetermined concentration of the liquid to be obtained is set; a ultrasonic wave was applied to the liquid in an ultrasonic washing machine for 30 minutes; and the state of the resulting liquid was visually evaluated.
The solubility of the compound in propylene glycol monomethyl ether (PGME) and cyclohexanone (CHN) was evaluated according to the following standard using the dissolution amount in each solvent. • A: 5.0% by weight≦dissolution amount • B: 3.0% by weight≦dissolution amount<5.0% by weight • C: dissolution amount<3.0% by weight • (2) Resolution, Shape, Roughness (LER), and Sensitivity of Resist Pattern
The dissolution amounts of compounds obtained in the above Synthesis Examples 1 and 2 and Synthesis Comparative Example 1 in propylene glycol monomethyl ether (PGME) and cyclohexanone (CHN) were evaluated using the above evaluation method and standard.

| Structure (SMILES) | CHN (dissolution amount) | PGME (dissolution amount) |
| --- | --- | --- |
| Oc1cc(O)c2cc1C(c1ccc(I)cc1)c1cc(c(O)cc1O)C(c1ccc(I)cc1)c1cc(c(O)cc1O)C(c1ccc(I)cc1)c1cc(c(O)cc1O)C2c1ccc(I)cc1 (stereo not drawn) [CR-1] | A (5.0% by weight≦dissolution amount) | A (5.0% by weight≦dissolution amount) |
| Oc1cc(O)c2cc1C(c1ccc(C3CCCCC3)cc1)c1cc(c(O)cc1O)C(c1ccc(C3CCCCC3)cc1)c1cc(c(O)cc1O)C(c1ccc(C3CCCCC3)cc1)c1cc(c(O)cc1O)C2c1ccc(C2CCCCC2)cc1 (stereo not drawn) [CR-1A, reference compound] | C (dissolution amount<3.0% by weight) | B (3.0% by weight≦dissolution amount<5.0% by weight) |
| Oc1cc(O)c2cc1C(c1ccc(CI)cc1)c1cc(c(O)cc1O)C(c1ccc(CI)cc1)c1cc(c(O)cc1O)C(c1ccc(CI)cc1)c1cc(c(O)cc1O)C2c1ccc(CI)cc1 (stereo not drawn) [CR-2] | A (5.0% by weight≦dissolution amount) | A (5.0% by weight≦dissolution amount) |
